Measured values reported in US11319303B2 (WIGEN BIOMEDICINE TECHNOLOGY (SHANGHAI) CO., LTD., priority 2017, dated 2022).
Like-named read-outs stand apart in the source and are kept apart here.

Target: LC3B (Homo sapiens, UniProt Q9GZQ8)
Assay: Fluorescence Polarization (FP) Assay: displacement of FITC-labeled peptide from GST-LC3B
Type: binding
Experimental: The compounds of the present invention for regulating the autophagy-related protein LC3B were tested by Fluorescence Polarization (FP) Assay.
Fluorescence Polarization (FP) Assay Test

[1] = Fluorescence Polarization assay, GST-LC3B 180 nM, FITC-labeled peptide 18 nM, 25° C., read-out: IC50

## O=C1CC(c2ccccc2)CC(=O)C1=CNCCN1CCN(C(=O)c2ccc(Br)cc2)CC1 (centres unmarked) [Compound 220, 2-(((2-(4-(4-bromobenzoyl)piperazin-1-yl)ethyl)amino)methylene)-5-phenylcyclohexane-1,3-dione]
[1]
  IC50: 3 to 15 µM

## O=C1CC(c2ccccc2)CC(=O)C1=CNCCN1CCN(C(=O)Cc2ccccc2)CC1 (centres unmarked) [Compound 221, 5-phenyl-2-(((2-(4-(2-phenylacetyl)piperazin-1-yl)ethyl)amino)methylene) cyclohexane-1,3-dione]
[1]
  IC50: < 3 µM

## O=C1CC(c2ccccc2)CC(=O)C1=CNCCN1CCN(C(=O)c2cccnc2)CC1 (centres unmarked) [Compound 222, 2-(((2-(4-nicotinoylpiperazin-1-yl)ethyl)amino)methylene)-5-phenylcyclohexane-1,3-dione]
[1]
  IC50: < 3 µM

## Cc1ccc(NC(=O)N2CCN(CCNC=C3C(=O)CC(c4ccc(C)cc4)CC3=O)CC2)cc1 (centres unmarked) [Compound 224, 4-(2-(((2,6-dioxo-4-(p-tolyl)cyclohexylidene)methyl)amino)ethyl)-N-(p-tolyl)piperazine-1-carboxamide]
[1]
  IC50: < 3 µM

## CC(=O)N1CCN(CCNC=C2C(=O)CC(c3ccc(C)cc3)CC2=O)CC1 (centres unmarked) [Compound 225, 2-(((2-(4-acetylpiperazin-1-yl)ethyl)amino)methylene)-5-(p-tolyl) cyclohexane-1,3-dione]
[1]
  IC50: < 3 µM

## Cc1ccc(C2CC(=O)C(=CNCCN3CCN(C(=O)N4CCOCC4)CC3)C(=O)C2)cc1 (centres unmarked) [Compound 226, 2-(((2-(4-(morpholine-4-carbonyl)piperazin-1-yl)ethyl)amino)methylene)-5-(p-tolyl) cyclohexane-1,3-dione]
[1]
  IC50: < 3 µM

## Cc1ccc(C2CC(=O)C(=CNCCN3CCN(S(=O)(=O)c4ccc(C)cc4)CC3)C(=O)C2)cc1 (centres unmarked) [Compound 227, 5-(p-tolyl)-2-(((2-(4-tosylpiperazin-1-yl)ethyl)amino)methylene) cyclohexane-1,3-dione]
[1]
  IC50: 100 to 1000 µM

## CCCNC(=O)N1CCN(CCNC=C2C(=O)CC(c3ccc(C)cc3)CC2=O)CC1 (centres unmarked) [Compound 228, 4-(2-(((2,6-dioxo-4-(p-tolyl)cyclohexylidene)methyl)amino)ethyl)-N-propylpiperazine-1-carboxamide]
[1]
  IC50: < 3 µM

## Cc1ccc(C2CC(=O)C(=CNCCN3CCN(CCO)CC3)C(=O)C2)cc1 (centres unmarked) [Compound 229, 2-(((2-(4-(2-hydroxyethyl)piperazin-1-yl)ethyl)amino)methylene)-5-(p-tolyl) cyclohexane-1,3-dione]
[1]
  IC50: < 3 µM

## Cc1ccc(C2CC(=O)C(=CNCCN3CCN(CCCO)CC3)C(=O)C2)cc1 (centres unmarked) [Compound 230, 2-(((2-(4-(3-hydroxypropyl)piperazin-1-yl)ethyl)amino)methylene)-5-(p-tolyl) cyclohexane-1,3-dione]
[1]
  IC50: < 3 µM

## Cc1ccc(C2CC(=O)C(=CNCCN3CCN(C(=S)Nc4ccccc4)CC3)C(=O)C2)cc1 (centres unmarked) [Compound 231, 4-(2-(((2,6-dioxo-4-(p-tolyl)cyclohexylidene)methyl)amino)ethyl)-N-phenylpiperazine-1-carbothioamide]
[1]
  IC50: < 3 µM

## C=CC(=O)N1CCN(CCNC=C2C(=O)CC(c3ccc(C)cc3)CC2=O)CC1 (centres unmarked) [Compound 232, 2-(((2-(4-acryloylpiperazin-1-yl)ethyl)amino)methylene)-5-(p-tolyl) cyclohexane-1,3-dione]
[1]
  IC50: < 3 µM

## C=C(C)C(=O)N1CCN(CCNC=C2C(=O)CC(c3ccc(C)cc3)CC2=O)CC1 (centres unmarked) [Compound 233, 2-(((2-(4-methacryloyl-piperazin-1-yl)ethyl)amino)methylene)-5-(p-tolyl) cyclohexane-1,3-dione]
[1]
  IC50: < 3 µM

## O=C1CC(c2ccccc2)CC(=O)C1=CNCCN1CCNCC1 (centres unmarked) [Compound 236, 5-phenyl-2-(((2-(piperazin-1-yl)ethyl)amino)methylene) cyclohexane-1,3-dione]
[1]
  IC50: 3 to 15 µM

## Cc1ccc(C2CC(=O)C(=CNCCN3CCNCC3)C(=O)C2)cc1 (centres unmarked) [Compound 237, 2-(((2-(piperazin-1-yl)ethyl)amino)methylene)-5-(p-tolyl) cyclohexane-1,3-dione]
[1]
  IC50: 3 to 15 µM

## CCN1CCN(CCNC=C2C(=O)CC(c3ccc(C)cc3)CC2=O)CC1 (centres unmarked) [Compound 238, 2-(((2-(4-ethylpiperazin-1-yl)ethyl)amino)methylene)-5-(p-tolyl) cyclohexane-1,3-dione]
[1]
  IC50: < 3 µM

## Cc1ccc(C2CC(=O)C(=CNCCN3CCN(C(=O)N(C)C)CC3)C(=O)C2)cc1 (centres unmarked) [Compound 240, 4-(2-(((2,6-dioxo-4-(p-tolyl)cyclohexylidene)methyl)amino)ethyl)-N,N-dimethyl-piperazine-1-carboxamide]
[1]
  IC50: < 3 µM

## COc1ccc(C2CC(=O)C(=CN(C)C)C(=O)C2)cc1 (centres unmarked) [Compound 241, 2-((dimethylamino)methylene)-5-(4-methoxyphenyl) cyclohexane-1,3-dione]
[1]
  IC50: < 3 µM

## CN(C)C=C1C(=O)CC(c2ccc(N(C)C)cc2)CC1=O (centres unmarked) [Compound 242, 2-((dimethylamino)methylene)-5-(4-(dimethylamino)phenyl) cyclohexane-1,3-dione]
[1]
  IC50: 3 to 15 µM

## COc1ccc(C2CC(=O)C(=CNCCN3CCN(C(=O)N4CCOCC4)CC3)C(=O)C2)cc1 (centres unmarked) [Compound 246, 5-(4-methoxyphenyl)-2-(((2-(4-(morpholine-4-carbonyl)piperazin-1-yl)ethyl)amino)-methylene) cyclohexane-1,3-dione]
[1]
  IC50: < 3 µM

## CN(C)C(=O)N1CCN(CCNC=C2C(=O)CC(c3ccc(Cl)cc3)CC2=O)CC1 (centres unmarked) [Compound 248, 4-(2-(((4-(4-chlorophenyl)-2,6-dioxocyclo-hexylidene)methyl)amino)ethyl)-N,N-dimethylpiperazine-1-carboxamide]
[1]
  IC50: < 3 µM

## O=C1CC(c2ccc(Cl)cc2)CC(=O)C1=CNCCN1CCN(C(=O)N2CCOCC2)CC1 (centres unmarked) [Compound 249, 5-(4-chlorophenyl)-2-(((2-(4-(morpholine-4-carbonyl)piperazin-1-yl)ethyl)amino)methylene) cyclohexane-1,3-dione]
[1]
  IC50: < 3 µM

## CN(C)C=C1C(=O)CC(c2ccc3c(c2)CCO3)CC1=O (centres unmarked) [Compound 251, 5-(2,3-dihydrobenzofuran-5-yl)-2-((dimethylamino)methylene) cyclohexane-1,3-dione]
[1]
  IC50: < 3 µM

## CN(C)C=C1C(=O)CC(c2ccc(C(F)(F)F)cc2)CC1=O (centres unmarked) [Compound 254, 2-((dimethylamino)methylene)-5-(4-(trifluoromethyl)phenyl) cyclohexane-1,3-dione]
[1]
  IC50: < 3 µM

## CN(C)C=C1C(=O)CC(c2cccc(C(F)(F)F)c2)CC1=O (centres unmarked) [Compound 255, 2-((dimethylamino)methylene)-5-(3-(trifluoromethyl)phenyl) cyclohexane-1,3-dione]
[1]
  IC50: < 3 µM

## CC(=O)Nc1ccc(C2CC(=O)C(=CN(C)C)C(=O)C2)cc1 (centres unmarked) [Compound 256, N-(4-(4-((dimethylamino)methylene)-3,5-dioxocyclohexyl)phenyl) acetamide]
[1]
  IC50: < 3 µM

## CN(C)C=C1C(=O)CC(c2cccnc2)CC1=O (centres unmarked) [Compound 257, 2-((dimethylamino)methylene)-5-(pyridin-3-yl)cyclohexane-1,3-dione]
[1]
  IC50: 15 to 100 µM

## CN(C)C=C1C(=O)CC(c2ccc3[nH]ncc3c2)CC1=O (centres unmarked) [Compound 259, 2-((dimethylamino)methylene)-5-(1H-indazol-5-yl)cyclohexane-1,3-dione]
[1]
  IC50: < 3 µM

## O=C1CC(c2ccc(C(=O)O)cc2)CC(=O)C1=CNCCN1CCOCC1 (centres unmarked) [Compound 260, 4-(4-(((2-morpholinoethyl)amino)methylene)-3,5-dioxocyclohexyl) benzoic acid]
[1]
  IC50: < 3 µM

## CN(C)C=C1C(=O)CC(C2CCCCC2)CC1=O (centres unmarked) [Compound 262, 4-((dimethylamino)methylene)-[1,1′-bi(cyclohexane)]-3,5-dione]
  IC50: < 3 µM

## CN(C)C=C1C(=O)CC(c2cccs2)CC1=O (centres unmarked) [Compound 264, 2-((dimethylamino)methylene)-5-(thiophen-2-yl)cyclohexane-1,3-dione]
[1]
  IC50: < 3 µM

## CN(C)C=C1C(=O)CC(c2ccc(Cl)nc2)CC1=O (centres unmarked) [Compound 266, 5-(6-chloropyridin-3-yl)-2-((dimethylamino)methylene) cyclohexane-1,3-dione]
[1]
  IC50: 3 to 15 µM

## CN(C)C=C1C(=O)CC(c2cccc(C(=O)NCCc3ccccc3)c2)CC1=O (centres unmarked) [Compound 267, 3-(4-((dimethylamino)methylene)-3,5-dioxocyclohexyl)-N-phenethylbenzamide]
[1]
  IC50: 3 to 15 µM

## CN(C)C=C1C(=O)CC(c2cccc(C(=O)NCCCCc3ccccc3)c2)CC1=O (centres unmarked) [Compound 269, 3-(4-((dimethylamino)methylene)-3,5-dioxocyclohexyl)-N-(4-phenylbutyl)-benzamide]
[1]
  IC50: 3 to 15 µM

## CN(C)C=C1C(=O)CC(c2cccc3[nH]ccc23)CC1=O (centres unmarked) [Compound 271, 2-((dimethylamino)methylene)-5-(1H-indol-4-yl)cyclohexane-1,3-dione]
[1]
  IC50: < 3 µM

## CN(C)C=C1C(=O)CC(Cc2ccccc2)CC1=O (centres unmarked) [Compound 272, 5-benzyl-2-((dimethylamino)methylene) cyclohexane-1,3-dione]
[1]
  IC50: 3 to 15 µM

## CC(C)CNC(=O)C1CC(=O)C(=CN(C)C)C(=O)C1 (centres unmarked) [Compound 273, 4-((dimethylamino)methylene)-N-isobutyl-3,5-dioxocyclohexane-1-carboxamide]
[1]
  IC50: 15 to 100 µM

## CCCNC(=O)C1CC(=O)C(=CN(C)C)C(=O)C1 (centres unmarked) [Compound 274, 4-((dimethylamino)methylene)-3,5-dioxo-N-propylcyclohexane-1-carboxamide]
[1]
  IC50: 15 to 100 µM

## CC(C)CC1CC(=O)C(=CN(C)C)C(=O)C1 (centres unmarked) [Compound 276, 2-((dimethylamino)methylene)-5-isobutylcyclo-hexane-1,3-dione]
[1]
  IC50: 15 to 100 µM

## CN(C)C=C1C(=O)CC(c2cccc3ccccc23)CC1=O (centres unmarked) [Compound 277, 2-((dimethylamino)methylene)-5-(naphthalen-1-yl)cyclohexane-1,3-dione]
[1]
  IC50: < 3 µM

## CN(C)C=C1C(=O)CC(c2ccc3ccccc3c2)CC1=O (centres unmarked) [Compound 278, 2-((dimethylamino)methylene)-5-(naphthalen-2-yl)cyclohexane-1,3-dione]
[1]
  IC50: < 3 µM
